Assay results reported in PubChem BioAssay (NCI).
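Test compounds were applied to cells in 96-well plates for 48 hours at 5 doses. TGI: total growth inhibition.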

How the values were obtained:
Test in all cases: NCI anticancer screen, dose series, 48 h
[1] = test system: K-562 leukemia
[2] = test system: COLO 205 colon
[3] = test system: RPMI-8226 leukemia
[4] = test system: SK-MEL-2 melanoma
[5] = test system: SK-OV-3 ovarian
[6] = test system: M14 melanoma
[7] = test system: TK-10 renal
[8] = test system: SK-MEL-28 melanoma
[9] = test system: UACC-62 melanoma
[10] = test system: SF-539 CNS
[11] = test system: OVCAR-4 ovarian
[12] = test system: SF-268 CNS
[13] = test system: LOX IMVI melanoma
[14] = test system: KM12 colon
[15] = test system: DLD-1 colon
[16] = test system: HCT-15 colon
[17] = test system: SW-620 colon
[18] = test system: SNB-75 CNS
[19] = test system: CCRF-CEM leukemia
[20] = test system: SF-295 CNS
[21] = test system: HOP-92 NSCLC
[22] = test system: HCT-116 colon
[23] = test system: DMS 114 small cell lung
[24] = test system: HT29 colon
[25] = test system: A549 NSCLC
[26] = test system: HCC-2998 colon
[27] = test system: NCI-H23 lung
[28] = test system: MALME-3M melanoma
[29] = test system: NCI-H460 lung
[30] = test system: CAKI-1 renal
[31] = test system: SK-MEL-5 melanoma
[32] = test system: UACC-257 melanoma
[33] = test system: UO-31 renal
[34] = test system: MOLT-4 leukemia
[35] = test system: U251 CNS
[36] = test system: NCI-H522 lung
[37] = test system: SN12C renal
[38] = test system: IGROV1 ovarian
[39] = test system: EKVX NSCLC
[40] = test system: SNB-78 CNS
[41] = test system: OVCAR-5 ovarian
[42] = test system: KM20L2 colon
[43] = test system: LXFL 529 NSCLC
[44] = test system: HOP-62 NSCLC
[45] = test system: SNB-19 CNS
[46] = test system: DMS 273 small cell lung
[47] = test system: ACHN renal
[48] = test system: A498 renal
[49] = test system: RXF 393 renal
[50] = test system: HL-60(TB) leukemia
[51] = test system: OVCAR-3 ovarian
[52] = test system: HOP-18 NSCLC
[53] = test system: 786-0 renal
[54] = test system: OVCAR-8 ovarian
[55] = test system: NCI-H226 lung
[56] = test system: SR leukemia
[57] = test system: M19-MEL melanoma

## O=C(c1ccccc1)C(c1ccccc1)C1(O)C(=O)Nc2c(Cl)ccc(Cl)c21 (configuration not stated)
[1]
  TGI: 35 µM
[2]
  TGI: 38.5 µM
[3]
  TGI: 40.8 µM
[4]
  TGI: 39.5 µM
[5]
  TGI: > 60.8 µM
[6]
  TGI: 30.7 µM
[7]
  TGI: > 67.3 µM
[8]
  TGI: 34.6 µM
[9]
  TGI: 33.8 µM
[10]
  TGI: 44.5 µM
[11]
  TGI: 13.4 µM
[12]
  TGI: 54 µM
[13]
  TGI: 28 µM
[14]
  TGI: 50.5 µM
[15]
  TGI: 35 µM
[16]
  TGI: 36.2 µM
[17]
  TGI: 37.9 µM
[18]
  TGI: 39.2 µM
[19]
  TGI: 46.6 µM
[20]
  TGI: 31.1 µM
[21]
  TGI: 35.4 µM
[22]
  TGI: 31 µM
[23]
  TGI: 37.2 µM
[24]
  TGI: 47.1 µM
[25]
  TGI: > 69.1 µM
[26]
  TGI: 77.7 µM
[27]
  TGI: 35.6 µM
[28]
  TGI: 31.3 µM
[29]
  TGI: 56.8 µM
[30]
  TGI: 39.8 µM
[31]
  TGI: 34.1 µM
[32]
  TGI: 29.9 µM
[33]
  TGI: 39.1 µM
[34]
  TGI: 49 µM
[35]
  TGI: 78.8 µM
[36]
  TGI: 34.9 µM
[37]
  TGI: 31.8 µM
[38]
  TGI: 42.7 µM
[39]
  TGI: 32.6 µM
[40]
  TGI: 64 µM
[41]
  TGI: 35.5 µM
[42]
  TGI: > 100 µM
[43]
  TGI: 31.2 µM
[44]
  TGI: 49.8 µM
[45]
  TGI: > 85.6 µM
[46]
  TGI: 42.9 µM
[47]
  TGI: 31.7 µM
[48]
  TGI: 64.6 µM
[49]
  TGI: 33.8 µM
[50]
  TGI: 38.5 µM
[51]
  TGI: 32.4 µM
[52]
  TGI: 49.3 µM
[53]
  TGI: 39.9 µM
[54]
  TGI: 44.7 µM

## CN(C)c1ccc(C(C#N)NNC(=O)Cc2ccccc2)cc1 (configuration not stated)
[1]
  TGI: > 100 µM
[2]
  TGI: > 100 µM
[3]
  TGI: > 100 µM
[4]
  TGI: > 100 µM
[5]
  TGI: > 100 µM
[6]
  TGI: > 100 µM
[7]
  TGI: > 100 µM
[8]
  TGI: > 100 µM
[9]
  TGI: > 100 µM
[10]
  TGI: > 100 µM
[11]
  TGI: > 100 µM
[12]
  TGI: > 100 µM
[13]
  TGI: > 100 µM
[14]
  TGI: > 100 µM
[15]
  TGI: > 100 µM
[16]
  TGI: > 100 µM
[17]
  TGI: > 100 µM
[18]
  TGI: > 100 µM
[19]
  TGI: > 100 µM
[20]
  TGI: > 100 µM
[21]
  TGI: > 100 µM
[22]
  TGI: > 100 µM
[23]
  TGI: > 100 µM
[24]
  TGI: > 100 µM
[25]
  TGI: > 100 µM
[27]
  TGI: > 100 µM
[28]
  TGI: > 100 µM
[29]
  TGI: > 100 µM
[30]
  TGI: > 100 µM
[31]
  TGI: > 100 µM
[32]
  TGI: > 100 µM
[33]
  TGI: > 100 µM
[34]
  TGI: > 100 µM
[35]
  TGI: > 100 µM
[55]
  TGI: > 100 µM
[36]
  TGI: > 100 µM
[37]
  TGI: > 100 µM
[38]
  TGI: > 100 µM
[40]
  TGI: > 100 µM
[41]
  TGI: > 100 µM
[42]
  TGI: > 100 µM
[43]
  TGI: > 100 µM
[44]
  TGI: > 100 µM
[56]
  TGI: > 100 µM
[46]
  TGI: > 100 µM
[47]
  TGI: > 100 µM
[57]
  TGI: > 100 µM
[49]
  TGI: > 100 µM
[50]
  TGI: > 100 µM
[51]
  TGI: > 100 µM
[52]
  TGI: > 100 µM
[53]
  TGI: > 100 µM
[54]
  TGI: > 100 µM
